# Measured values taken from the supplement of paper PMC10307832.
# Experiments:
# Test in all cases: relative viability (nuclei count vs DMSO), 5 days (fraction); higher = more cells survive
# [1] = compound: Nc1ncn([C@H]2C[C@H](O)[C@@H](CO)O2)c(=O)n1 [Decitabine] + COc1cccc2cc(-c3nc([C@H]4CC[C@H](C(=O)O)CC4)n4ncnc(N)c34)[nH]c12 [OSI-027] (partner 0.5 µM)
# In short: (§1)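 Medians of duplicate plates are given as relative viability. That measure is the nuclei count in treated wells divided by the count in vehicle wells. Counts were taken on 4× images of lung cancer cell lines in 1536-well plates, 5 days after pin-tool dosing the day after seeding with one drug alone or a fixed anchor-drug dose plus five library-drug doses (not always all listed) in √10 steps.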
# [2] = compound: O=C(C[C@H]1NCCC[C@@H]1O)Cn1cnc2cc(Br)c(Cl)cc2c1=O (racemic) [Halofuginone] + COc1cc2c(Oc3ccc(NC(=O)C4(C(=O)Nc5ccc(F)cc5)CC4)cc3F)ccnc2cc1OCCCN1CCOCC1 [Foretinib] (partner 0.25 µM)
# In short: as §1
# [3] = compound: Nc1ncn([C@H]2C[C@H](O)[C@@H](CO)O2)c(=O)n1 [Decitabine] + Nc1nc2[nH]cc(CCc3ccc(C(=O)N[C@@H](CCC(=O)O)C(=O)O)cc3)c2c(=O)[nH]1 [Pemetrexed] (partner 0.2 µM)
# In short: as §1
# [4] = compound: Nc1ncn([C@H]2C[C@H](O)[C@@H](CO)O2)c(=O)n1 [Decitabine] + Cc1nc(Nc2ncc(C(=O)Nc3c(C)cccc3Cl)s2)cc(N2CCN(CCO)CC2)n1 [Dasatinib] (partner 0.075 µM)
# In short: as §1
cell line,measurement,setting,value
UMC-11,relative viability,[1]; first compound 0.04 µM,0.46
same,relative viability,[1]; first compound 0.1265 µM,0.0004
same,relative viability,[1]; first compound 0.4 µM,0.411
same,relative viability,[1]; first compound 1.265 µM,0.316
same,relative viability,[1]; first compound 4 µM,0.363
same,relative viability,[2]; first compound 0.001 µM,1.11
same,relative viability,[2]; first compound 0.003162 µM,1
same,relative viability,[2]; first compound 0.01 µM,0.991
same,relative viability,[2]; first compound 0.03162 µM,0.848
same,relative viability,[2]; first compound 0.1 µM,0.72
same,relative viability,[3]; first compound 0.04 µM,0.691
same,relative viability,[3]; first compound 0.1265 µM,0.563
same,relative viability,[3]; first compound 0.4 µM,0.406
same,relative viability,[3]; first compound 1.265 µM,0.358
same,relative viability,[3]; first compound 4 µM,0.351
same,relative viability,[4]; first compound 0.04 µM,0.496
same,relative viability,[4]; first compound 0.1265 µM,0.442
same,relative viability,[4]; first compound 0.4 µM,0.293
same,relative viability,[4]; first compound 1.265 µM,0.335
same,relative viability,[4]; first compound 4 µM,0.327
